Assay results: patent US20090286862A1, “Therapeutic agent for psychoneurotic disease” (ONO PHARMACEUTICAL CO., LTD., priority 2004, published 2009)
Counter-ions that a name gives are not always drawn.

Experiments:
Assay type in all cases: in vivo
[1] = system: corticosterone elevation evoked by administration of sulprostone; test: Inhibitory activity for corticosterone elevation evoked by administration of sulprostone; settings: Male CD (SD) IGS rat; 10 mg/kg orally 1 hour before sulprostone 0.3 mg/kg subcutaneously; blood 1 hour after
Method: Inhibitory Activity for Corticosterone Elevation Evoked by Administration of Sulprostone
Male CD (SD) IGS rat were orally administrated EP3 antagonist [compound (I), compound (II) and compound (III) (respectively, 10 mg/5 mL/kg (0.5% methylcellulose suspension))], the control group were orally administrated 0.5% methylcellulose suspension (5 mL/kg). After being administered for an hour, all groups were administered sulprostone subcutaneously (0.3 mg/4 mL/kg). In contrast, non-evoked group were orally administrated 0.5% methylcellulose suspension (5 mL/kg), and after being administered for an hour, administered physiological saline subcutaneously (4 mL/kg). After 1 hour from subcutaneous administration, rats of all groups were collected blood. The withdrawn blood was added EDTA and aprotinin, centrifuged (12,000 rpm, 3 minutes), and measured the corticosterone concentration in the supernatant by using the method of EIA (Bachem Inc.) or ELISA (Endocrine Technologies Inc.).

olfactory bulbectomy rat [2] = test: Score of emotional responses in olfactory bulbectomy rat (antidepressant effect); settings: for score of emotional responses: seventh day, Male Wistar olfactory bulbectomy rat, 10 mg/kg orally twice a day for 7 days, control group 20.1±0.7, sham 3.7±3.4
Description: (§1) Antidepressant Effect and Antianxiety Effect for Olfactory Bulbectomy Rat
(§2) Male Wistar rat was anesthetized by injection of pentobarbital sodium, and fixed the head on a brain positioner. Either side of the bulbus olfactorius region of the head was drilled a hole with dental drill after the scalp incision. The either side of the bulbus olfactorius was aspirated and removed with an aspirator and then, the head was stitched up the scalp. The rat was defined as an olfactory bulbectomy animal. Alternatively, a sham surgery animal was anesthetized, fixed the brain, incised the scalp as well as the olfactory bulbectomy animal. The either side of the bulbus olfactorius region of the head was drilled a hole, and the either side of the bulbus olfactorius was not aspirated and removed and then, the head was stitched up the scalp. The olfactory bulbectomy animals were bred with isolated alone. In contrast, the sham surgery animals were not bred with isolated alone.
The olfactory bulbectomy animals were orally administered each the compound (I) of the present invention (10 mg/kg), the compound as positive control (desipramine hydrochloride (10 mg/kg); Wako Pure Chemical Industries, Ltd.), and control (0.5% methylcellulose suspension (5 mL/kg)) twice a day for 7 days. At that time, reactivity of emotional responses for 10 minutes for the first dosage one hour later of the first day and the seventh day was marked in accordance with an evaluation standard based on Gomi's method (Gomitami, other four people, Japanese pharmacologic magazine, 1983, Vol. 82, p 267-292).

olfactory bulbectomy rat [3] = test: Elevated plus-maze in olfactory bulbectomy rat (antianxiety effect); settings: for antianxiety effect: elevated plus-maze
Description: as §1, §2
Furthermore, each the olfactory bulbectomy animals and the sham surgery animals administered the compound (I) of the present invention, desipramine hydrochloride or control were located the center of platform toward the open arms on the elevated plus-maze for 10 minutes for the first dosage one hour later of the eighth day, and it was measured within a 5 minutes period. Each the time (second) in the open arms and the close arms were measured with video-imaging behavioral analysis equipment.

Row | SMILES | corticosterone elevation (corticosterone concentration in blood) [1] | antidepressant effect (olfactory bulbectomy rat [2]; olfactory bulbectomy rat) | score of emotional responses (in words) (olfactory bulbectomy rat [2]; olfactory bulbectomy rat, 10 mg/kg orally twice a day, FIG. 2) | score of emotional responses (olfactory bulbectomy rat [2]) | time in the open arms on the elevated plus-maze (olfactory bulbectomy rat [3]; eighth day, 1 hour after first dosage, 5 minutes period, FIG. 3) | antianxiety effect (olfactory bulbectomy rat [3]) | effective daily dosage in olfactory bulbectomy rat (olfactory bulbectomy rat [2]; olfactory bulbectomy rat, oral) [mg/kg per day]
1 | Cc1cc(C)cc([C@@H](CC(C)C)NC(=O)c2cc(COc3cc(F)ccc3C)ccc2CCC(=O)O)c1 [compound (I), 3-(2-((((1R)-1-(3,5-dimethylphenyl)-3-methylbutyl)amino)carbonyl)-4-(5-fluoro-2-methylphenoxymethyl)phenyl)propanoic acid] | inhibited | has antidepressant effect | decreased significantly | 6.2±4.6 | improved significantly | has antianxiety effect | –
2 | Cc1cc(C)cc([C@@H](CC(C)C)NC(=O)c2cc(COc3cc(F)ccc3F)ccc2CCC(=O)O)c1 [compound (II), 3-(2-(((1R)-3-methyl-1-(3,5-dimethylphenyl)butyl)carbamoyl)-4-(2,5-difluorophenoxymethyl)phenyl)propanoic acid] | inhibited | equivalent effect | – | – | – | equivalent effect | –
3 | Cc1cc(C)cc([C@@H](CC(C)C)NC(=O)c2cc(COc3cc(C)ccc3C)ccc2CCC(=O)O)c1 [compound (III), 3-(2-(((1R)-3-methyl-1-(3,5-dimethylphenyl)butyl)carbamoyl)-4-(2,5-dimethylphenoxymethyl)phenyl)propanoic acid] | inhibited | equivalent effect | – | – | – | equivalent effect | –
4 | CNCCCN1c2ccccc2CCc2ccccc21 [desipramine hydrochloride, reference compound] | – | – | – | 7.5±3.4 | – | – | 20
